We go through 2 compounds from patent publication US20100311708A1, “USE OF NOR-BILE ACIDS IN THE TREATMENT OF ARTERIOSCLEROSIS” (priority 2007, published 2010).

Holding throughout (format): in vivo
Experiment [1] deals with ApoE−/− mice. Nature of the experiment: Prevention of atherosclerosis in ApoE−/− mice by nor-UDCA in comparison to UDCA (Experiment 4). The settings on record: prevention study, 0.5% w/w in western chow diet for 12 weeks. From the text: (§1) ApoE-deficient mice as described in Experiment 1 were used.
ApoE−/− mice (n=15) were fed with normal diet for 8 weeks post natum and then segregated into three groups with each group comprising five mice. In the control group, the mice were fed with the western chow diet for additional 12 weeks. In the second group, the ApoE−/− mice were fed with a western chow diet comprising 0.5% w/w nor-UDCA for additional 12 weeks. Finally, in the third group, the ApoE−/− mice were fed with a western chow diet comprising 0.5% w/w UDCA for additional 12 weeks. Considering a food intake of 4 g/day of chow per mouse, this corresponds to 20 mg/day of nor-UDCA or UDCA, respectively, per mouse.
Thus, in this experimental prevention setup, the mice are fed with diet known to force atherosclerotic plaque formation together with either UDCA or nor-UDCA (mice of the second and third group) having preventive effects on the plaque formation. When compared to a control fed with western chow diet only, the preventive effects can be studied.
The experimental setup is depicted in FIG. 14(a).

In experiment [2] the test system is ApoE−/− mice. Nature of the experiment: Treatment of ApoE−/− mice with nor-UDCA in comparison to UDCA (Experiment 3). The settings on record: for % plaques in the aortic arch (plaque area versus total area, en-face red oil): FIG. 12; for plaques in red-oil stained aortic valve cross-sections (histological analysis): FIG. 13 top.
Text: as §1
ApoE−/− mice (n=15) were fed with normal diet for 8 weeks post natum, followed by western chow diet (“high fat diet”) for another 8 weeks. The mice were then segregated into three groups with each group comprising five mice. In the control group, the mice were further fed with the western chow diet for additional four weeks. In the second group, the ApoE−/− mice were fed with a western chow diet comprising 0.5% w/w nor-UDCA for additional four weeks. Finally, in the third group, the ApoE−/− mice were fed with a western chow diet comprising 0.5% w/w UDCA for additional four weeks. Considering a food intake of 4 g/day of chow per mouse, this corresponds to 20 mg/day of nor-UDCA or UDCA, respectively, per mouse.
The experimental setup is depicted in FIG. 6.

The subject of experiment [3] is LDLR−/− mice. Nature of the experiment: Treatment of LDLR−/− mice with nor-UDCA (Experiment 2). The settings on record: 0.5% w/w in western chow diet for 4 weeks after 8 weeks western chow diet; vs control; FIG. 5. From the text:
In a second experiment (FIGS. 4 and 5), the effect of nor-UDCA in LDLR−/− mice that were raised on a western chow diet was investigated.
As for the ApoE-deficient mice, the LDLR-deficient mice are considered to be a bona-fide animal model of atherosclerosis development. If these mice are raised on a western chow diet they evolve typical symptoms of atherosclerosis involving atherosclerotic plaque formation in the aorta (FIG. 5).
LDLR−/− mice were produced as described in Ishebashi et. al. (J. Clin. Jnnvest., 1993, 92, 883-893). The 129-derived AB1 ES cell line was used. The strain was backcrossed to C57BL/6J mice for 10 generations. Ldlr^tm1Her/Ldlr^tm1Her involves: 129S7/SvEvBrd*C57BL/6. LDLR-deficient mice can also be obtained from the Jackson Laboratory (Maine, US) with the strain name B6.129S7-Ldlr^tm1Her/J (http://jaxmice.jax.org).
As in Experiment 1, ten mice being deficient in LDLR were raised on normal diet during the first 8 weeks post natum followed by the western chow diet for another eight weeks. Afterwards, the ten mice were separated into two groups for which the control group A received further feeding on a western chow diet for 4 weeks. In the test group B, the western chow diet of the following 4 weeks was supplemented with 0.5% w/w nor-UDCA. Considering a food intake of 4 g/day of chow per mouse, this corresponds to 20 mg/day of nor-UDCA per mouse. […]

Experiment [4] has as its system ApoE−/− mice. Briefly: Treatment of ApoE−/− mice with nor-UDCA (Experiment 1). The note with it: 0.5% w/w in western chow diet for 4 weeks after 8 weeks western chow diet, vs control. The protocol: In order to study the effects of nor-UDCA on atherosclerosis, ApoE-deficient mice were treated. To this end ApoE−/− mice as described in Piedrahita et. al. (PNAS, 1992, 89, 4471-4475) which carry the Apoe^tm1Unc mutation were back-crossed 10 times into the C57BL76J. ApoE-deficient mice can also be obtained from the Jackson Laboratory (Maine, US) with the strain name B6.129P2.-Apoe^tm1Unc/J(http://jaxmice.jax.org).
ApoE−/− mice (n=10) were fed with normal diet for 8 weeks post natum, followed by western chow diet for another 8 weeks. The western chow diet consists of 21% by weight fat, 1.5% by weight cholesterol and no cholic acid (“high fat diet”).
This type of western chow diet is known to force atherosclerotic plaque formation on the indicated time line in ApoE−/− mice. After eight weeks of being fed with western chow diet, the mice were segregated into two groups with each group comprising five mice. In the control group A, the mice were further fed with the western chow diet for additional four weeks. In the other group B, the ApoE−/− mice were fed with a western chow diet comprising 0.5% w/w nor-UDCA for additional four weeks. Considering a food intake of 4 g/day of chow per mouse, this corresponds to 20 mg/day of nor-UDCA per mouse.
The experimental setup is depicted in FIG. 1.

The mark [5] stands for this setting: treatment study, 0.5% w/w in western chow diet for 4 weeks.

Structures are written as SMILES.

Turning to `C[C@H](CCC(=O)O)[C@H]1CC[C@H]2[C@@H]3[C@@H](O)C[C@@H]4C[C@H](O)CC[C@]4(C)[C@H]3CC[C@]12C` [UDCA, reference compound], the “weight of the brown adipose tissue” value in experiment [1] (FIG. 18) is listed as “neither UDCA nor nor-UDCA had an influence”. In experiment [2] (setting [5]), the “% plaques in the aortic arch (plaque area versus total area, en-face red oil)” value is on record as “decreasing the percent of plaques” and the “plaques in red-oil stained aortic valve cross-sections (histological analysis)” value is “the amount of plaques is reduced”.
As to `C[C@H](CC(=O)O)[C@H]1CC[C@H]2[C@@H]3[C@@H](O)C[C@@H]4C[C@H](O)CC[C@]4(C)[C@H]3CC[C@]12C` [nor-UDCA, 24-nor[3α,7β-dihydroxy-5β-cholan-23-oic] acid], the “hepatic triglyceride amounts, liver preparations stained with oil-red (histology)” value in experiment [1] (FIG. 15 a-c) was “hepatic triglyceride amounts are decreased”. Moreover, the “total serum cholesterol levels” value in experiment [1] (FIG. 17) is on record as “does not seem to reduce serum cholesterol levels”; in experiment [2] (treatment study, 0.5% w/w in western chow diet for 4 weeks, compared to control, FIG. 11), “seems to be capable of lowering the total cholesterol”. Besides, the “weight of the brown adipose tissue” value in experiment [1] (FIG. 18) is “neither UDCA nor nor-UDCA had an influence”. In experiment [1] (FIG. 19), the “extent and size of atherosclerotic plaques, aorta en-face stained with red oil” value is recorded as “significantly reduced”. Also, the “serum transaminase (alanin-amino-transferase) levels” value in experiment [1] (compared to control and UDCA, FIG. 16) is on record as “significantly reduces the serum transaminase levels”; in experiment [2] (treatment study, 0.5% w/w in western chow diet for 4 weeks, compared to control, FIG. 10) it was “trend of reducing the serum transaminase levels”. Moreover, in experiment [1] (compared to control or UDCA-treated mice, FIG. 18), the “amount (weight) of white adipose tissue” value is “strong reduction of the amount of white adipose tissue”. In addition, in experiment [1] (compared to control or UDCA-treated mice, FIG. 15 d), the “hepatic triglyceride levels (quantification in liver homogenate)” value is “capable of significantly reducing the triglyceride-amount in the liver”. Further, the “sclerotic area versus the total aorta area (morphometric analysis)” value in experiment [1] (vs control, FIG. 20) was “significantly smaller”. Further, the “extent and size of atherosclerotic plaque, aorta en-face stained with red oil” value in experiment [3] is “significantly reduced”. Moreover, in experiment [4] (20 weeks post natum, FIG. 2), the “arteriosclerotic plaques in red-oil stained aorta cross-sections (histological analysis)” value was “significantly reduced extent of these plaques”. Moreover, the “sclerotic area versus the aorta area (morphometric analysis)” value in experiment [4] (FIG. 3) is “significantly smaller”. Further, the “number of hepatic neutrophil granulocytes (CD11b-positive cells in liver)” value in experiment [2] (0.5% w/w in western chow diet for 4 weeks after 8 weeks western chow diet, FIG. 7) is “clearly reduced”. The “expression level of p-JNK in liver tissue (Western blot)” value in experiment [2] (0.5% w/w in western chow diet for 4 weeks after 8 weeks western chow diet, FIG. 8) is “capable of downregulating the expression of p-JNK”. The “% plaques in the aortic arch (plaque area versus total area, en-face red oil)” value in experiment [2] (setting [5]) is on record as “decreasing the percent of plaques”. Moreover, in experiment [2] (treatment study, 0.5% w/w in western chow diet for 4 weeks, FIG. 13 quantification), the “aortic valve plaque area versus total surface area (plaques in % of the surface area)” value was “significant reduction of said % plaques”. The “plaques in red-oil stained aortic valve cross-sections (histological analysis)” value in experiment [2] (setting [5]) is reported as “the amount of plaques is reduced”. For the same compound, in experiment [2] (treatment study, 0.5% w/w in western chow diet for 4 weeks, compared to control or UDCA-treated mice, FIG. 9), the hepatic triglyceride levels result is reported as “capable of significantly reducing the triglyceride-amount in the liver”.
